Data as given in PubChem BioAssay (NCI).
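A five-concentration, 48-hour dose response in 96-well plates underlies each endpoint, interpolated linearly between surrounding concentrations. The concentration for full growth arrest is given as TGI.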

Tests used:
Experiment in all cases: inhibition of tumour cell growth, NCI panel, 48 h
NCI-H460 lung = system: NCI-H460 lung
RPMI-8226 leukemia = system: RPMI-8226 leukemia
SN12C renal = system: SN12C renal
COLO 205 colon = system: COLO 205 colon
LOX IMVI melanoma = system: LOX IMVI melanoma
MCF7 breast = system: MCF7 breast
T-47D breast = system: T-47D breast
NCI-H226 lung = system: NCI-H226 lung
ACHN renal = system: ACHN renal
MDA-N = system: MDA-N
RXF 393 renal = system: RXF 393 renal
K-562 leukemia = system: K-562 leukemia
786-0 renal = system: 786-0 renal
SF-268 CNS = system: SF-268 CNS
SK-MEL-28 melanoma = system: SK-MEL-28 melanoma
OVCAR-8 ovarian = system: OVCAR-8 ovarian
EKVX NSCLC = system: EKVX NSCLC
MALME-3M melanoma = system: MALME-3M melanoma
A498 renal = system: A498 renal
DU-145 prostate = system: DU-145 prostate
SF-539 CNS = system: SF-539 CNS
HCC-2998 colon = system: HCC-2998 colon
NCI-H522 lung = system: NCI-H522 lung
OVCAR-5 ovarian = system: OVCAR-5 ovarian
U251 CNS = system: U251 CNS
PC-3 prostate = system: PC-3 prostate
M14 melanoma = system: M14 melanoma
CAKI-1 renal = system: CAKI-1 renal
MOLT-4 leukemia = system: MOLT-4 leukemia
TK-10 renal = system: TK-10 renal
HT29 colon = system: HT29 colon
BT-549 breast = system: BT-549 breast
OVCAR-3 ovarian = system: OVCAR-3 ovarian
HCT-15 colon = system: HCT-15 colon
KM12 colon = system: KM12 colon
HS 578T breast = system: HS 578T breast
NCI/ADR-RES ovarian = system: NCI/ADR-RES ovarian
UACC-257 melanoma = system: UACC-257 melanoma
SK-MEL-2 melanoma = system: SK-MEL-2 melanoma
NCI-H23 lung = system: NCI-H23 lung
SW-620 colon = system: SW-620 colon
IGROV1 ovarian = system: IGROV1 ovarian
MDA-MB-435 = system: MDA-MB-435
MDA-MB-231 breast = system: MDA-MB-231 breast
SK-MEL-5 melanoma = system: SK-MEL-5 melanoma
SK-OV-3 ovarian = system: SK-OV-3 ovarian
OVCAR-4 ovarian = system: OVCAR-4 ovarian
HOP-92 NSCLC = system: HOP-92 NSCLC
SF-295 CNS = system: SF-295 CNS
UACC-62 melanoma = system: UACC-62 melanoma
SNB-75 CNS = system: SNB-75 CNS
HOP-62 NSCLC = system: HOP-62 NSCLC
SNB-19 CNS = system: SNB-19 CNS
UO-31 renal = system: UO-31 renal
A549 NSCLC = system: A549 NSCLC
HCT-116 colon = system: HCT-116 colon
CCRF-CEM leukemia = system: CCRF-CEM leukemia

## COc1ccc(CC(COS(=O)(=O)c2ccc(C)cc2)NS(=O)(=O)c2ccc(C)cc2)cc1 (stereo unspecified)
NCI-H460 lung
  TGI: 55.2 µM
RPMI-8226 leukemia
  TGI: > 100 µM
SN12C renal
  TGI: 36.1 µM
COLO 205 colon
  TGI: 34.3 µM
LOX IMVI melanoma
  TGI: > 100 µM
MCF7 breast
  TGI: > 69.7 µM
T-47D breast
  TGI: 21 µM
NCI-H226 lung
  TGI: 27.7 µM
ACHN renal
  TGI: 49.2 µM
MDA-N
  TGI: > 62.6 µM
RXF 393 renal
  TGI: 17.1 µM
K-562 leukemia
  TGI: > 100 µM
786-0 renal
  TGI: 53.1 µM
SF-268 CNS
  TGI: 39 µM
SK-MEL-28 melanoma
  TGI: 35.2 µM
OVCAR-8 ovarian
  TGI: > 100 µM
EKVX NSCLC
  TGI: 31.6 µM
MALME-3M melanoma
  TGI: 27.3 µM
A498 renal
  TGI: 35.8 µM
DU-145 prostate
  TGI: 28.9 µM
SF-539 CNS
  TGI: > 100 µM
HCC-2998 colon
  TGI: 29.5 µM
NCI-H522 lung
  TGI: 22.9 µM
OVCAR-5 ovarian
  TGI: 39.9 µM
U251 CNS
  TGI: 26.2 µM
PC-3 prostate
  TGI: 38.9 µM
M14 melanoma
  TGI: 29.6 µM
CAKI-1 renal
  TGI: > 60.8 µM
MOLT-4 leukemia
  TGI: > 100 µM
TK-10 renal
  TGI: 43.6 µM
HT29 colon
  TGI: > 50.9 µM
BT-549 breast
  TGI: 23.7 µM
OVCAR-3 ovarian
  TGI: 27.8 µM
HCT-15 colon
  TGI: 41.1 µM
KM12 colon
  TGI: > 77 µM
HS 578T breast
  TGI: 58.8 µM
NCI/ADR-RES ovarian
  TGI: > 52.7 µM
UACC-257 melanoma
  TGI: 67.1 µM
SK-MEL-2 melanoma
  TGI: 44.7 µM
NCI-H23 lung
  TGI: 40.8 µM
SW-620 colon
  TGI: 27 µM
IGROV1 ovarian
  TGI: 30.1 µM
MDA-MB-435
  TGI: 28.5 µM
MDA-MB-231 breast
  TGI: > 84.5 µM
SK-MEL-5 melanoma
  TGI: 24.6 µM
SK-OV-3 ovarian
  TGI: 43.7 µM
OVCAR-4 ovarian
  TGI: 41.9 µM
HOP-92 NSCLC
  TGI: 19.9 µM
SF-295 CNS
  TGI: 33.6 µM
UACC-62 melanoma
  TGI: 43.8 µM
SNB-75 CNS
  TGI: 28.4 µM
HOP-62 NSCLC
  TGI: 41.2 µM
SNB-19 CNS
  TGI: 32.6 µM
UO-31 renal
  TGI: 40.2 µM
A549 NSCLC
  TGI: > 62.2 µM
HCT-116 colon
  TGI: > 48.4 µM

## CCOC(=O)c1nc2ccccc2nc1Oc1ccc(F)cc1
NCI-H460 lung
  TGI: > 100 µM
RPMI-8226 leukemia
  TGI: > 100 µM
SN12C renal
  TGI: > 100 µM
COLO 205 colon
  TGI: > 100 µM
LOX IMVI melanoma
  TGI: > 100 µM
MCF7 breast
  TGI: > 100 µM
T-47D breast
  TGI: > 100 µM
NCI-H226 lung
  TGI: > 100 µM
ACHN renal
  TGI: > 100 µM
MDA-N
  TGI: > 100 µM
RXF 393 renal
  TGI: > 100 µM
K-562 leukemia
  TGI: > 100 µM
786-0 renal
  TGI: > 100 µM
SF-268 CNS
  TGI: > 100 µM
SK-MEL-28 melanoma
  TGI: > 100 µM
OVCAR-8 ovarian
  TGI: > 100 µM
EKVX NSCLC
  TGI: > 100 µM
A498 renal
  TGI: > 100 µM
DU-145 prostate
  TGI: > 100 µM
SF-539 CNS
  TGI: > 100 µM
OVCAR-5 ovarian
  TGI: > 100 µM
U251 CNS
  TGI: > 100 µM
PC-3 prostate
  TGI: > 100 µM
M14 melanoma
  TGI: > 100 µM
CCRF-CEM leukemia
  TGI: > 100 µM
TK-10 renal
  TGI: > 100 µM
HT29 colon
  TGI: > 100 µM
BT-549 breast
  TGI: > 100 µM
OVCAR-3 ovarian
  TGI: > 100 µM
HCT-15 colon
  TGI: > 100 µM
KM12 colon
  TGI: > 100 µM
HS 578T breast
  TGI: > 100 µM
NCI/ADR-RES ovarian
  TGI: > 100 µM
UACC-257 melanoma
  TGI: > 100 µM
SK-MEL-2 melanoma
  TGI: > 100 µM
SW-620 colon
  TGI: > 100 µM
IGROV1 ovarian
  TGI: > 100 µM
MDA-MB-435
  TGI: > 100 µM
MDA-MB-231 breast
  TGI: > 100 µM
SK-MEL-5 melanoma
  TGI: > 100 µM
SK-OV-3 ovarian
  TGI: > 100 µM
HOP-92 NSCLC
  TGI: > 100 µM
SF-295 CNS
  TGI: > 100 µM
UACC-62 melanoma
  TGI: > 100 µM
SNB-75 CNS
  TGI: > 100 µM
HOP-62 NSCLC
  TGI: > 100 µM
SNB-19 CNS
  TGI: > 100 µM
UO-31 renal
  TGI: > 100 µM
A549 NSCLC
  TGI: > 100 µM
HCT-116 colon
  TGI: > 100 µM
